Here are results for 23 compounds from US20260334439A1, “BCAT2 INHIBITORS” (Agios Pharmaceuticals, Inc., priority 2023, published 2026).

The term IC50 denotes the concentration that gives 50% inhibition.

Test [1] concerns the target T1, BCAT2 (Homo sapiens, UniProt O15382).
T1 sequence (O15382 28-392): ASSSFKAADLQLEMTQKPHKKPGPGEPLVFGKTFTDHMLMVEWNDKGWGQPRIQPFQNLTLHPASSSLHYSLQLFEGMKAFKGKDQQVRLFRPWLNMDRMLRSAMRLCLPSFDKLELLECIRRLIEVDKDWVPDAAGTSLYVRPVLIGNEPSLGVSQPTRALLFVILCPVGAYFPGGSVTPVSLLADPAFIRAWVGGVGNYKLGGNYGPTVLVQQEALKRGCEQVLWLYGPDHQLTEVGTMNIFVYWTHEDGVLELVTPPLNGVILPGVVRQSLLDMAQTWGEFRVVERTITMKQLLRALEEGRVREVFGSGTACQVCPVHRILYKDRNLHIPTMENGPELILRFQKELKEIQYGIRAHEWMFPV
Put plainly: BCAT2 cell inhibition using engineered A549 cells (MUT KO, BCAT1 KO; 13C6-KMV formation by LC-MS/MS). In kind it is cell-based. Further details: expressed endogenous BCAT2; endogenous in cells; host or cells: A549 cells, MUT knockout and BCAT1 knockout. An outline of the steps:
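Medium 13C6-KMV formation is read by LC-MS/MS after PFBHA derivatization with d8-KMV internal standard. Cells are CRISPR MUT/BCAT1 double-knockout A549 expressing endogenous BCAT2, given compound 15 min before labelled isoleucine (800 uM, added 1:1) for 24 h. CTG viability run in parallel; replicates averaged.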

The target in test [2] is T1, BCAT2. Put plainly: BCAT2 in vitro enzyme inhibition assay (hBCAT2, glutamate dehydrogenase/diaphorase/resazurin coupled fluorescence read). Conditions: hBCAT2, 1 h preincubation at 25° C., one hour reaction; average where tested multiple times. The test is classed as biochemical. An outline of the steps:
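hBCAT2 (0.33 μg/mL in mix) preincubated 1 h at 25 °C with compound (top 100 μM, 3-fold, 10 points) in Tris pH 8.0/NaCl/BSA; substrate mix added (L-leucine, α-ketoglutarate, GDH, NAD, diaphorase, resazurin), quenched with SDS after 1 h, fluorescence Ex 540/Em 590; duplicates, repeat tests averaged.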
For orientation: Resazurin is reduced to fluorescent resorufin, in cell work by metabolically active cells.

The mark [3] stands for this setting: read-out: BCAT2 Cell Inhibition (IC50), engineered A549 cells, 24 hours, 13C6-KMV in media, average where tested multiple times.

With `O=C(N[C@H]1CCC[C@@H](n2c(-c3ccccc3F)nc3cnc(-c4nc[nH]n4)cc32)C1)c1cc(Cl)ccc1O` [Example 53, 5-chloro-N-((1S,3R)-3-(2-(2-fluorophenyl)-6-(1H-1,2,4-triazol-3-yl)-1H-imidazo[4,5-c]pyridin-1-yl)cyclohexyl)-2-hydroxybenzamide], the IC50 at BCAT2 [1] and on BCAT2 [2] was below 100 nM each time.
Take `COc1ccc(Cl)cc1C(=O)N[C@H]1CCC[C@@H](n2c(-c3ccccc3F)nc3ccc(-c4nc[nH]n4)cc32)[C@@H]1O` [Example 217, 5-chloro-N-((1S,2R,3R)-3-(2-(2-fluorophenyl)-6-(1H-1,2,4-triazol-3-yl)-1H-benzo[d]imidazol-1-yl)-2-hydroxycyclo-hexyl)-2-methoxybenzamide]: the IC50 at BCAT2 [1] (setting [3]) was above 1000 nM; against BCAT2 [2] it was below 100 nM.
Turning to `O=C1c2cc(Cl)ccc2NCN1[C@H]1CCC[C@@H](n2c(-c3ccccc3F)nc3cnc(-c4nc[nH]n4)cc32)C1` [Example 206, 6-chloro-3-((1S,3R)-3-(2-(2-fluorophenyl)-6-(1H-1,2,4-triazol-3-yl)-1H-imidazo[4,5-c]pyridin-1-yl)cyclohexyl)-2,3-dihydroquinazolin-4(1H)-one], the IC50 against BCAT2 [1] and against BCAT2 [2] was below 100 nM each time.
On to `CN1C[C@@H](NC(=O)c2cc(F)ccn2)C[C@@H](n2c(-c3ccccc3F)nc3cnc(-c4nc[nH]n4)cc32)C1` [Example 133, 4-fluoro-N-((3S,5R)-5-(2-(2-fluorophenyl)-6-(1H-1,2,4-triazol-3-yl)-1H-imidazo[4,5-c]pyridin-1-yl)-1-methylpiperidin-3-yl)picolinamide], for which the IC50 is above 1000 nM at BCAT2 [1] (setting [3]) and 100 to 500 nM on BCAT2 [2].
`O=C1c2c(ccc(F)c2F)CN1[C@H]1CCC[C@@H](n2c(-c3ccccc3F)nc3cnc(-c4nc[nH]n4)cc32)C1` [Example 178, 6,7-difluoro-2-((1S,3R)-3-(2-(2-fluorophenyl)-6-(1H-1,2,4-triazol-3-yl)-1H-imidazo[4,5-c]pyridin-1-yl)cyclohexyl)isoindolin-1-one]: the IC50 against BCAT2 [1] and against BCAT2 [2] was below 100 nM throughout.
In the case of `O=C(N[C@H]1CCC[C@@H](n2c(-c3ccccc3F)nc3cnc(-c4nc[nH]n4)cc32)[C@@H]1O)c1cc(F)ccc1F` [Example 120, 2,5-difluoro-N-((1S,2R,3R)-3-(2-(2-fluorophenyl)-6-(1H-1,2,4-triazol-3-yl)-1H-imidazo[4,5-c]pyridin-1-yl)-2-hydroxycyclohexyl)benzamide], the IC50 at BCAT2 [1] and on BCAT2 [2] was below 100 nM throughout.
Turning to `O=C1c2cc(Cl)ccc2OCN1[C@H]1CCC[C@@H](n2c(-c3ccccc3OC(F)F)nc3cnc(-c4nc[nH]n4)cc32)C1` [compound 205], the IC50 against BCAT2 [1] and at BCAT2 [2] was below 100 nM in each case.
Regarding `CC(C)COc1ccc(Cl)cc1C(=O)N[C@H]1CCC[C@@H](n2c(-c3ccccc3C#N)nc3cnc(-c4nc[nH]n4)cc32)C1` [Example 49, 5-chloro-N-((1S,3R)-3-(2-(2-cyanophenyl)-6-(1H-1,2,4-triazol-3-yl)-1H-imidazo[4,5-c]pyridin-1-yl)cyclohexyl)-2-isobutoxybenzamide], the values for the IC50 against BCAT2 [1] and against BCAT2 [2] were 100 to 500 nM and below 100 nM, respectively.
The like results for `O=C1c2cc(F)ccc2CN1[C@H]1CCC[C@@H](n2c(-c3c(O)cccc3F)nc3cnc(-c4nc[nH]n4)cc32)C1` [Example 179, 6-fluoro-2-((1S,3R)-3-(2-(2-fluoro-6-hydroxyphenyl)-6-(1H-1,2,4-triazol-3-yl)-1H-imidazo[4,5-c]pyridin-1-yl)cyclohexyl)isoindolin-1-one] were, in that order, below 100 nM and below 100 nM.
For `O=C(N[C@H]1CCC[C@@H](n2c(-c3ccccc3F)nc3cnc(-c4ncn(C(F)F)n4)cc32)[C@@H]1O)c1cc(Cl)ccn1` [compound 118] the same measures were below 100 nM and below 100 nM.
With `CN1C[C@H](NC(=O)c2cc(Cl)ccn2)C[C@H](n2c(-c3ccccc3OC(F)F)nc3cnc(-c4nc[nH]n4)cc32)C1` [compound 141], the IC50 against BCAT2 [1] and against BCAT2 [2] was below 100 nM throughout.
Consider `O=C(N[C@H]1CCC[C@@H](n2c(-c3ncccc3F)nc3cnc(-c4nc[nH]n4)cc32)C1)c1cc(Cl)ccn1` [Example 15, 4-chloro-N-((1S,3R)-3-(2-(3-fluoropyridin-2-yl)-6-(1H-1,2,4-triazol-3-yl)-1H-imidazo[4,5-c]pyridin-1-yl)cyclohexyl)picolinamide], for which the IC50 at BCAT2 [1] and on BCAT2 [2] was below 100 nM in each case.
As to `COc1ccc(Cl)cc1C(=O)N[C@H]1CCC[C@@H](n2c(-c3ccccc3F)nc3cnc(-c4nc[nH]n4)cc32)[C@@H]1O` [Example 102, 5-chloro-N-((1S,2R,3R)-3-(2-(2-fluorophenyl)-6-(1H-1,2,4-triazol-3-yl)-1H-imidazo[4,5-c]pyridin-1-yl)-2-hydroxycyclohexyl)-2-methoxybenzamide], the IC50 at BCAT2 [1] and at BCAT2 [2] was below 100 nM throughout.
In the case of `CCOc1ccc(Cl)cc1C(=O)N[C@H]1CCC[C@@H](n2c(-c3ccccn3)nc3cnc(-c4nc[nH]n4)cc32)C1` [Example 26, 5-chloro-2-ethoxy-N-((1S,3R)-3-(2-(pyridin-2-yl)-6-(1H-1,2,4-triazol-3-yl)-1H-imidazo[4,5-c]pyridin-1-yl)cyclohexyl)benzamide], the results for the IC50 against BCAT2 [1] and on BCAT2 [2] were 100 to 500 nM and below 100 nM, respectively.
The like results for `O=C1c2cc(F)ccc2CN1[C@H]1CCC[C@@H](n2c(-c3c(F)cccc3F)nc3cnc(-n4nccn4)cc32)[C@@H]1O` [Example 186, 2-((1S,2S,3R)-3-(2-(2,6-difluorophenyl)-6-(2H-1,2,3-triazol-2-yl)-1H-imidazo[4,5-c]pyridin-1-yl)-2-hydroxycyclohexyl)-6-fluoroisoindolin-1-one] were, in that order, below 100 nM and below 100 nM.
For `O=C(N[C@H]1CCC[C@@H](n2c(-c3ccccc3F)nc3cnc(-c4nc[nH]n4)cc32)C1)c1cc(F)ccc1F` [Example 58, 2,5-difluoro-N-((1S,3R)-3-(2-(2-fluorophenyl)-6-(1H-1,2,4-triazol-3-yl)-1H-imidazo[4,5-c]pyridin-1-yl)cyclohexyl)benzamide] the same measures were below 100 nM and below 100 nM.
For `O=C1c2ccc(F)cc2C(=O)N1[C@H]1CCC[C@@H](n2c(-c3ccccc3F)nc3cnc(-c4nc[nH]n4)cc32)C1` [Example 182, 5-fluoro-2-((1S,3R)-3-(2-(2-fluorophenyl)-6-(1H-1,2,4-triazol-3-yl)-1H-imidazo[4,5-c]pyridin-1-yl)cyclohexyl)isoindoline-1,3-dione] the same measures were below 100 nM and below 100 nM.
Turning to `O=C1c2c(F)cccc2CN1[C@H]1CCC[C@@H](n2c(-c3ccccc3F)nc3cnc(-c4nc[nH]n4)cc32)C1` [Example 175, 7-fluoro-2-((1S,3R)-3-(2-(2-fluorophenyl)-6-(1H-1,2,4-triazol-3-yl)-1H-imidazo[4,5-c]pyridin-1-yl)cyclohexyl)isoindolin-1-one], the IC50 against BCAT2 [1] and on BCAT2 [2] was below 100 nM throughout.
Regarding `O=C(N[C@H]1CCC[C@@H](n2c(-c3ccccc3F)nc3cnc(-c4nc[nH]n4)cc32)C1)c1cc(Cl)ccc1OCCCO` [Example 82, 5-chloro-N-((1S,3R)-3-(2-(2-fluorophenyl)-6-(1H-1,2,4-triazol-3-yl)-1H-imidazo[4,5-c]pyridin-1-yl)cyclohexyl)-2-(3-hydroxypropoxy)benzamide], the IC50 against BCAT2 [1] and against BCAT2 [2] was below 100 nM in each case.
`COCCOc1ccc(Cl)cc1C(=O)N[C@H]1CCC[C@@H](n2c(-c3ccccc3F)nc3cnc(-c4nc[nH]n4)cc32)C1` [Example 54, 5-chloro-N-((1S,3R)-3-(2-(2-fluorophenyl)-6-(1H-1,2,4-triazol-3-yl)-1H-imidazo[4,5-c]pyridin-1-yl)cyclohexyl)-2-(2-methoxyethoxy)benzamide]: the IC50 against BCAT2 [1] and against BCAT2 [2] was below 100 nM throughout.
For `N#Cc1ccccc1-c1nc2cnc(-c3nc[nH]n3)cc2n1[C@@H]1CCC[C@H](NC(=O)c2cc(Cl)ccn2)C1` [Example 45, 4-chloro-N-((1S,3R)-3-(2-(2-cyanophenyl)-6-(1H-1,2,4-triazol-3-yl)-1H-imidazo[4,5-c]pyridin-1-yl)cyclohexyl)picolinamide], the half-maximal inhibitory concentration (IC50) against BCAT2 [1] and at BCAT2 [2] was below 100 nM in each case.
With `O=C1c2cc(F)ccc2CN1[C@H]1CCC[C@@H](n2c(-c3c(F)cccc3OC(F)F)nc3ccc(-c4nc[nH]n4)cc32)[C@@H]1O` [compound 240], the results for the IC50 on BCAT2 [1] and against BCAT2 [2] were 100 to 500 nM and below 100 nM, respectively.
For `CC(C)Oc1ccc(Cl)cc1C(=O)N[C@H]1CCC[C@@H](n2c(-c3ccccc3C#N)nc3cnc(-c4nc[nH]n4)cc32)C1` [Example 36, 5-chloro-N-((1S,3R)-3-(2-(2-cyanophenyl)-6-(1H-1,2,4-triazol-3-yl)-1H-imidazo[4,5-c]pyridin-1-yl)cyclohexyl)-2-isopropoxybenzamide] the same measures were below 100 nM and below 100 nM.
